What was measured:
[1] = tested on: rat FCA 96 hr paw model of inflammatory pain (heat hyperalgesia); assay: Heat hyperalgesia (Plantar Test) in rat FCA 96 hr paw model of inflammatory pain; type: in vivo; details: oral dosing 0.3-1-3-10-20 μmol/kg, 96 h after FCA
Procedure: (§1) One of the compounds of the present invention was evaluated in an in vivo model of inflammatory pain.
(§2) Male Sprague-Dawley rats (Charles River, St-Constant, Qc, CAN) weighing 200-225 g were utilized for the animal experiment studies. The animals were group-housed in polycarbonate, ventilated cages (filter top) in a controlled environment room (12-h light/dark cycle, 20.5-23.5° C., relative humidity: 40-70%) with food (14% Protein Rodent Maintenance Diet, Harlan Teklad, Madisson, WI, USA) and water ad libidum.
(§3) Inflammation was induced by injection of a single 40 μl Freund's complete adjuvant (FCA) intra-plantar injection into the rat's left hindpaw. All experiments were conducted 96 h after FCA administration. […]
Heat hyperalgesia (Plantar Test) was assessed using a Paw Thermal Stimulator to apply a controlled heat to the plantar surface of the affected paw. […] The heat source and timer were then turned on simultaneously; when the animal withdrew the hind paw the number of seconds was recorded. […]
(§4) Satellite animals were used to monitor the free plasma concentration of example 15 at the doses and time points used in the nociceptive tests. Free plasma EC50 values in behavioral studies were determined from 4-point concentration-response curves using non-linear regression and a sigmoidal variable slope logistic model (Prism 4.03, GraphPad Software Inc., USA).

[2] = tested on: rat FCA 96 hr paw model of inflammatory pain (mechanical hyperalgesia); assay: Mechanical hyperalgesia (Ugo Basile analgesy meter) in rat FCA 96 hr paw model of inflammatory pain; type: in vivo; details: oral dosing 0.3-1-3-10-20 μmol/kg, 96 h after FCA
Procedure: as §1, §2, §3
Mechanical hyperalgesia was assessed using the Ugo Basile analgesy meter (Ugo Basile, Comerio, Italy). […] The pressure required to elicit paw withdrawal was determined. […] Paw withdrawal thresholds were calculated as the mean of the two values. […]
as §4

SMILES: CNC(=O)c1cc(F)c(-c2nc3cc(C)ccn3c2C[C@H]2CN(C(=O)OC)CCO2)c(F)c1 [Example 15, (S)-methyl-2-((2-(2,6-difluoro-4-(methylcarbamoyl)phenyl)-7-methylimidazo[1,2-a]pyridin-3-yl)methyl)morpholine-4-carboxylate]
- reversal of heat hyperalgesia [1]: free plasma concentration dependent reversal
- EC50 ([1]; free plasma concentration, read-out: potency (EC50 free plasma concentration) in reversing heat hyperalgesia): 18 nM
- reversal of mechanical hyperalgesia [2]: free plasma concentration dependent reversal
- EC50 ([2]; free plasma concentration, read-out: potency (EC50 free plasma concentration) in reversing mechanical hyperalgesia): 87 nM
